# According to patent US20180303092A1, “AMINE SALTS OF CARBOXYLIC ACID HERBICIDES” (Taminco BVBA, priority 2017, published 2018):
# Legend:
# Assay type in all cases: physicochemical
# [1] = Wetting properties: contact angle of a droplet of max load product on parafilm layer; details: droplet on hydrophobic parafilm, read by eye
# Description: A visual test was used to determine the wetting property. FIG. 2 is an illustration of the test. A small droplet 11 of the max load product mentioned above was deposited by a syringe pointed vertically down onto a parafilm layer 10, which is hydrophobic. A profile picture of the droplet 11 was then captured by a camera. The approximate contact angle 13 of the droplet 11 with the parafilm layer 10 was then measured by eye using a protractor.
# The wetting angle determines the surface energy or chemical affinity of the salt solution with the apolar reference material. A high wetting angle indicates a […] of hydrophobic surfaces.
# (§1) Several amine herbicide formulations were prepared as described above in Examples 1 and 2. The viscosity of various formulations was measured using a Brookfield viscometer with nr.87 spindle at 20° C. Wettability was measured by visually measuring the contact angle after placing a standard droplet on a parafilm layer (hydrophobic).
# [2] = Maximum loading of herbicide amine salt in water (Karl-Fischer water content, HCl titration of amine); details: for Max Load amine g/L: amine in maximum loaded solution in water; for Max Load g ae/L: maximum loaded solution in water, acid equivalent of herbicide; for maximum loading: summary text b115
# Source text: Neutralizing acidic herbicides (e.g., 2,4-D, dicamba, glyphosate, glufosinate) with amines can result in the formation of highly water soluble salts. However, practical inconveniences may occur when adding liquid amines to the solid herbicides, such as the formation of wetted powder, poorly mixed slurries, two apparently non-mixed layers, etc. To efficiently prepare a salt, the method, shown as a flowchart in FIG. 1, has been developed.
# Referring to FIG. 1, step 100 involves using a mass balance to weigh 25 g of the active ingredient (a solid acidic herbicide, such as 2,4-D or dicamba) in a glass bottle. An equimolar amount of a basic amine (typically a liquid) is added to this glass bottle. Last, 2 mL of water is added. After adding the three compounds, the bottle is capped and placed on a shaking device for at least 12 hours.
# At step 109, theoretical neutralization has taken place. The salt concentration can be quantified by titration. To confirm that the solid layer is solid salt and the top layer is a saturated (max. loading) solution, a small amount of water is added (the amounts of water should be small enough to avoid a complete dissolution of the solid salt). After re-equilibrium during at least 12 hours of shaking, and under the condition that two phases are still present, the salt concentration is determined again. If salt concentrations are identical as the original values, then it can be concluded that a maximum loaded solution was obtained.
# To determine maximum loading of the salt in water, the method shown in the flowchart of FIG. 1 was used. The resulting sample contained at least two layers: a top layer of liquid and a bottom layer of solid salt. A water and amine determination was made of the top layer.
# To check the water content, a well-established method of Karl-Fischer was used. This method gives an accurate wt % of H2O in the sample.
# To determine the amine content, HCl-titration was used. HCl (0.1 N) was used as the titrant, and methanol was used as the solvent. 100-400 mg of the sample was taken from the liquid layer so that only 10-20 mL of the titrant was needed. The result was given in an EP. The following calculation was used to obtain the amine wt %:
# In general, the sample's liquid phase only contains three components: water, free amine, and the herbicide salt. Therefore, the following calculation was used to determine the salt wt %:
# wt %salt=100−wt %amine−wt %water
# The results below are reported in g a.e./L (acid equivalent). […] The results were calculated using the following equation: […]
# The MMs in the equation above are molecular weights (g/mol). ρ is the density of the liquid (g/mL), which may be measured using the density meter Anton Paar DMA 4500. F is a factor that takes into account the amount of base or acid groups on the amine or acid, respectively.
# The g amine/L reported below was calculated using the following equation: […]
# 25.02 g of dicamba herbicide was mixed with 4.16 g of 1,2-DAP and 5.88 g of water. The ingredients were shaken for a minimum of 24 hours at room temperature (20° C.) to obtain an oversaturated salt solution (with precipitated salt crystals). Theoretically, 1 mol of dicamba can be neutralized using 0.5 mol of 1,2-DAP. Water was gradually added until all the salt crystals were dissolved to form a maximum loaded clear solution. The loading of the active ingredient was determined based on the amine content by HCl titration and the water content by Karl-Fischer.
# Using the same methodology as described in Example 1, high-loaded 2,4-D salt solutions were prepared.
# [3] = Viscosity of max load amine salt solutions (Brookfield viscometer, nr. 87 spindle); details: 20° C.
# Description: The viscosity of the solutions prepared as above was determined using the Brookfield nr. 87 spindle. The applied speed depended on the viscosity of the sample. The torque applied was 50-80% of the machine's maximum. The results are expressed as mPa.
# as §1
# [4] = dicamba amine salt concentrates
# [5] = dicamba amine salts, room temperature (20° C.)
SMILES,"Wetting Angle ([1]; 2,4-D amine salts) [°]","Max Load amine g/L ([2]; 2,4-D amine salts) [amine g/L]","Max Load g ae/L ([2]; 2,4-D amine salts) [g ae/L]","Viscosity ([3]; 2,4-D amine salts)","Wetting Angle [1, 4] [°]","Maximum loading, amine ([2]; dicamba 1,2-DAP salt, Example 1) [g amine/L]",Max Load amine g/L ([2]; dicamba amine salts) [amine g/L],"Max Load g ae/L [2, 5] [g ae/L]",maximum loading ([2]; dicamba amine salts) [g/L],"Viscosity [3, 4]"
"C[N+](C)(C)CCO.O=C([O-])COc1ccc(Cl)cc1Cl [2,4-D Cbase salt, reference compound]",145,315.6,195.0,12.4 mPa,,,,,,
"CNC.O=C(O)COc1ccc(Cl)cc1Cl [2,4-D DMA salt, reference compound]",130,264.4,936.1,38.8 mPa,,,,,,
"CN(C)CCO.O=C(O)COc1ccc(Cl)cc1Cl [2,4-D DMAE salt]",105,316.9,624.7,74.0 mPa,,,,,,
"CN(C)CCCN.O=C(O)COc1ccc(Cl)cc1Cl [2,4-D DMAPA salt]",125,210.6,863.5,"1,455.0 mPa",,,,,,
"CC(C)CN.O=C(O)COc1ccc(Cl)cc1Cl [2,4-D MIBA salt]",155,183.5,497.8,60.1 mPa,,,,,,
"CNCCO.O=C(O)COc1ccc(Cl)cc1Cl [2,4-D MMEA salt]",110,302.5,774.3,21.2 mPa,,,,,,
"CC(N)CN.COc1c(Cl)ccc(Cl)c1C(=O)O.COc1c(Cl)ccc(Cl)c1C(=O)O [Dicamba 1,2-DAP salt]",,,,,105,365.9,365.9,803.2,803.2,218.0 mPa
COc1c(Cl)ccc(Cl)c1C(=O)[O-].C[N+](C)(C)CCO [Dicamba Cbase salt],,,,,115,,308.5,481.5,,13.5 mPa
"COc1c(Cl)ccc(Cl)c1C(=O)O.NCCOCCO [Dicamba DGA salt, reference compound]",,,,,120,,435.5,854.9,854.9,562.5 mPa
"CNC.COc1c(Cl)ccc(Cl)c1C(=O)O [Dicamba DMA salt, reference compound]",,,,,135,,211.1,1036.8,1036,58.8 mPa
CN(C)CCO.COc1c(Cl)ccc(Cl)c1C(=O)O [Dicamba DMAE salt],,,,,115,,408.3,849.0,,184.4 mPa
CC(C)CN.COc1c(Cl)ccc(Cl)c1C(=O)O [Dicamba MIBA salt],,,,,130,,475.0,713.7,,46.1 mPa
CNCCO.COc1c(Cl)ccc(Cl)c1C(=O)O [Dicamba MMEA salt],,,,,120,,357.7,928.8,,"3,967.0 mPa"
